Experimental data: US4704229A, “Surface-active compounds of the sulfobetaines family, their manufacture and use, particularly for enhanced oil recovery” (Institut Francais du Petrole, priority 1984, dated 1987)

Columns and labels:
Format in all cases: physicochemical
[1] = Solubility in water at 20° C.
Procedure: Solubility in water at 20° C. of the sulfobetaines of examples 2, 3, 5 and 7 (Table I).

[2] = Measurement of the critical micellar concentration (CMC) by surface tension (tensiometer, water/SA-ambient air interface); conditions: permuted water; for CMC: room temperature of 20° C.; for Surface tension: water/SA-ambient air interface, 20° C., Table II beside CMC
Procedure: Measurement of the critical micellar concentration (CMC) of the sulfobetaines of examples 2, 3, 5, and 7.
Preparation of solutions for the measurements of CMC values.
The method is a standard method using solutions of initial surfactant (SA) concentration of 0.5 g/l, in freshly permuted water, at room temperature of 20° C. The SA-water mixture is stirred up to complete dissolution and then a series of titrated solutions are obtained by successive dilution, by withdrawing a determined volume of mother-solution, brought each time to a standard volume i.e. 1 ml+39 ml; 2 ml+38 ml; 3 ml+37 ml; . . . The various solutions are stirred for 30 minutes and maintained at rest for 2 hours. The surface tensions are measured by means of a tensiometer Tensiomat n^3 Prolabo whose operating principle consists of measuring the pullout load of a stirrup piece placed at the water/SA-ambient air interface, expressed in millinewton/meter.
The CMC value corresponds to the inflection point of the obtained two straight lines.

[3] = Micro-emulsion test: determination of optimum solubility and optimum salt content parameters; conditions: pentanol as cosurfactant, dodecane as oil; brine NaCl/CaCl2 9/1
Text: Micro-emulsion test: Determination of optimum solubility and optimum salt content parameters.
The surface-active properties have been determined by analysis of the behaviour of sulfobetaines in a mixture defined according to standard conditions:
brine (NaCl, CaCl2 with (NaCl/CaCl2)=(9/1): 4.5 g
Depending on the salt content of the brine (0-200 g/l), three mono-, di- or triphasic systems can be observed when the product has surface-active properties:
(1) the behavior referred to as Windsor I, wherein an equilibrium is observed between oil phase and με phase*.
(2) a behavior referred to as Windsor II, wherein an equilibrium is observed between με phase and aqueous phase.
(3) and, finally, a so-called Windsor III systems, wherein the intermediary με phase is in equilibrium with a supernatant oil phase and an aqueous phase.
The latter system has the pecularity of very low interfacial tensions. […] The optimum solubility and optimum salinity parameters, corresponding to equal amounts of water and oil in the micro-emulsion, are defined in this system.
By way of example, for sulfobetaine: [drawing 25] the following parameters have been obtained with pentanol as cosurfactant and dodecane as oil: […]

| solubility [1] | CMC [2] | Surface tension [2] | optimum salinity parameter [3] | optimum solubility parameter [3] | SMILES |
| --- | --- | --- | --- | --- | --- |
| 4 mg/mL | 0.0028 g/L | 39 mN/m | – | – | CCCCCCCCCCCCCCCCCC[N+](C)(C)CCCN(CCCCS(=O)(=O)[O-])C(C)=O [Example 7, 5-acetyl-5-aza-8 (N,N-dimethylstearylammonium)octane sulfonate] |
| 300 mg/mL | 0.15 g/L | 49 mN/m | – | – | CCCCCCCCCCCC[N+](C)(C)CCCN(CCCS(=O)(=O)[O-])C(C)=O [Example 5, 4-acetyl-4-aza-7 (N,N-dimethyl laurylammonium)heptane sulfonate] |
| 80 mg/mL | 0.01 g/L | 35 mN/m | – | – | CCCCCCCCCCCCCCCCCC[N+](C)(C)CCN(CCCS(=O)(=O)[O-])C(C)=O [Example 3, 4-acetyl-4-aza-6 (N,N-dimethyl stearylammonium) hexane sulfonate] |
| – | – | – | 30 g/L | 55% | CCCCCCCCCCCCCCCCCC[N+](C)(C)CCN(CCCS(=O)(=O)[O-])C(C)=O [drawing 25] |
| 300 mg/mL | 0.04 g/L | 54 mN/m | – | – | CCCCCCCCCCCC[N+](C)(C)CCN(CCCS(=O)(=O)[O-])C(C)=O [Example 2, 4-acetyl-4-aza-6(N,N-dimethyl-laurylammonium)hexane sulfonate] |
